Test system: normal human dermal fibroblasts
Test: Incorporation of radioactive proline (collagen synthesis) into cultures of normal human dermal fibroblasts
Format: cell-based
Procedure: The study was conducted by measuring the incorporation of radioactive proline into cultures of normal human dermal fibroblasts. The fibroblast cultures were prepared according to conventional cell culture methods, i.e., in MEM/M199 medium marketed by Gibco in the presence of sodium bicarbonate (1.87 mg/ml), of L-glutamine (2 mM), of penicillin (50 IU/ml) and of 10% of fetal calf serum (Gibco). The assay was carried out on cell cultures at 80% confluency, in a 24-well plate. […] The labeling with tritiated proline (L-[2,3-^3H]-proline sold by Amersham, 33 (μCi/ml) was carried out for 24 hours. The level of tritiated proline incorporated was measured at the end of the assay by acid precipitation of the proteins on filters and liquid scintillation counting. […] A positive control (vitamin C at 20 (g/ml) known to stimulate collagen synthesis was introduced into the assay as a reference. The results of this assay, expressed as percentages of activation, are reported in the following Table I: […]

O=C1O[C@H]([C@@H](O)CO)C(O)=C1O [Vitamin C]
cpm (tritiated proline incorporated) (vitamin C at 20 (g/ml, positive control), untreated cells 7498 cpm): 13091 cpm
percentage of activation of proline incorporation (vitamin C at 20 (g/ml, versus untreated cells)): 75%
